The target in this test is EmrD (Escherichia coli, UniProt P31442). The experiment in a line: fluorescence anisotropy titration with EmrD. It counts as binding. For orientation: Fluorescence polarisation rises when a labelled molecule tumbles more slowly, as on binding a larger partner.
Chain of EmrD (P31442 whole entry): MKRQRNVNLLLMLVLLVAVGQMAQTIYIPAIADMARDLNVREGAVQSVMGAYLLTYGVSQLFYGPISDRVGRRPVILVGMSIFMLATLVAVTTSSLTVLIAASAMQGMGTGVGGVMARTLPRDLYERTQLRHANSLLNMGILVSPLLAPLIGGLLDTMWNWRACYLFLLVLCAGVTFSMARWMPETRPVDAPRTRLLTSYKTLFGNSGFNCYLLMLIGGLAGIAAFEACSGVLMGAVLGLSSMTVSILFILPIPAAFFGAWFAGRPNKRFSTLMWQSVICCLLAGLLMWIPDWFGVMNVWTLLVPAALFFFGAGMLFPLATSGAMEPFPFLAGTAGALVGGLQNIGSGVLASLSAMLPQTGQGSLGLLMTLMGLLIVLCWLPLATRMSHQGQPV

As for `COc1cccc2c1C(=O)c1c(O)c3c(c(O)c1C2=O)C[C@@](O)(C(=O)CO)C[C@@H]3O[C@H]1C[C@H](N)[C@H](O)[C@H](C)O1` [doxorubicin], the Kd (usually the equilibrium constant for the complex coming apart) is around 7 µM.

These data come from PMC3855667 (Biochemistry, 2013).
